Source: US11236046B2, “Substituted heterocyclic sulfonamide compounds useful as TRPA1 modulators” (Genentech, Inc., priority 2013, dated 2022)

Target: human TRPA1 (Homo sapiens (Human), UniProt O75762)
Experiment: FLIPR Tetra calcium influx assay, block of cinnamaldehyde-induced calcium influx in CHO cells expressing TRPA1 (human)
Format: cell-based
Settings: 20 min compound incubation, 75 uM cinnamaldehyde (~EC80), Hill coefficient fixed to 1.5, read-out: hTRPA1 AUC IC50
Summary of the method: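 CHO cells loaded with calcium dye, preincubated with compounds 20 min at room temperature in HBSS/20 mM HEPES pH 7.4 with 0.02% BSA. Channels activated by ~EC80 cinnamaldehyde (75 uM human, 45 uM rat); block of calcium influx read on FLIPR Tetra, IC50 fitted with fixed Hill coefficient.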

Chain of human TRPA1 (O75762 whole entry): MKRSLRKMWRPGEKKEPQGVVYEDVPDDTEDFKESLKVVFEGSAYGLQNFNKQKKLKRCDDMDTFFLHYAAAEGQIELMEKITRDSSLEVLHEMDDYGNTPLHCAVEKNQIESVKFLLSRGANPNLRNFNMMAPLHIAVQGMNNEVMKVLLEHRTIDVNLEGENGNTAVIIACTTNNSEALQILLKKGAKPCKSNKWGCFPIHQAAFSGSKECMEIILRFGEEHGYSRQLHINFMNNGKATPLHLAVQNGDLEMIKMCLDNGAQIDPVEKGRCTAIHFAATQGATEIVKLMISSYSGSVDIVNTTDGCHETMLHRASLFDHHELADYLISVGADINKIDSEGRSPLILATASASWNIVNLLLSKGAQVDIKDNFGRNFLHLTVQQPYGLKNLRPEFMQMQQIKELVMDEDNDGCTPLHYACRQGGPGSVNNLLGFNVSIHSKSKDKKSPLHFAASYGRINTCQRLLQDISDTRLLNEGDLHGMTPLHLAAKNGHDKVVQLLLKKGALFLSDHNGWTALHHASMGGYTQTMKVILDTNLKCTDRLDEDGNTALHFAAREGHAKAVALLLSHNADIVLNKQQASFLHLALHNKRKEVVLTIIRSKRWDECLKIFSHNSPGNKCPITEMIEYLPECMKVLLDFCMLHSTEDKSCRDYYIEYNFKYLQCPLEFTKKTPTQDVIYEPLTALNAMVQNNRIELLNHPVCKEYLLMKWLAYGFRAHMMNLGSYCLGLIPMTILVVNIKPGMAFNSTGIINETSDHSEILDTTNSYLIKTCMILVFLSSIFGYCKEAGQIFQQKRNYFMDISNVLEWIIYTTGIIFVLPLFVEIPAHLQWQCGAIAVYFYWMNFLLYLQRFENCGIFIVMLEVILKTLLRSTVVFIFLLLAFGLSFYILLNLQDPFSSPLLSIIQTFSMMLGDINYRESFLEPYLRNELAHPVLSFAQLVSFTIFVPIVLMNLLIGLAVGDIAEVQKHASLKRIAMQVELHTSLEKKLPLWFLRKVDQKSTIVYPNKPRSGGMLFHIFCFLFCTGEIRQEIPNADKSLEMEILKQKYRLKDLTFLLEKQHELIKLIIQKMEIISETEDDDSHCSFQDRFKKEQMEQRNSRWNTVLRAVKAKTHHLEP

Structure (SMILES)	IC50 [nM]
C[C@@H]1C[C@@H](C(=O)NCc2cc(-c3ccc(C(F)(F)F)nc3)ncn2)N1S(=O)(=O)c1ccc(F)cc1 [Example 200, (2S,4R)-1-[(4-fluorobenzene)sulfonyl]-4-methyl-N-([6-[6-(trifluoromethyl)pyridin-3-yl]pyrimidin-4-yl]methyl)azetidine-2-carboxamide]	333
O=C(NCc1cc(-c2ccc(OC(F)F)cc2)ncn1)[C@@H]1C[C@@H](F)CN1S(=O)(=O)c1ccc(F)cc1 [Example 64, (2S,4R)—N-[[6-[4-(difluoromethoxy)phenyl]pyrimidin-4-yl]methyl]-4-fluoro-1-(4-fluorophenyl)sulfonyl-pyrrolidine-2-carboxamide]	41
C[C@@]1(C(=O)NCc2cc(-c3ccc(C(F)(F)F)cc3)ncn2)C[C@@H](F)CN1S(=O)(=O)c1ccc(F)cc1 (single isomer, unassigned) [Example 138]	25
O=C(NCc1cc(-c2ccc(C(F)(F)F)cc2)ncn1)[C@@H]1C[C@@H]2COC[C@@H]2N1S(=O)(=O)c1ccc(F)cc1 (single isomer, unassigned) [Example 100]	449
O=C(NCc1cc(N2CCC(C(F)(F)F)CC2)c(C(F)(F)F)cn1)[C@@H]1C[C@@H](F)CN1S(=O)(=O)c1ccc(F)cc1 [Example 130, (2S,4R)-4-fluoro-1-(4-fluorophenyl)sulfonyl-N-[[5-(trifluoromethyl)-4-[4-(trifluoromethyl)-1-piperidyl]-2-pyridyl]methyl]pyrrolidine-2-carboxamide]	52
O=C(NCc1cc(-c2cnc(C(F)(F)F)nc2)ccc1Cl)[C@@H]1C[C@@H](F)CN1S(=O)(=O)c1ccc(F)cc1 [Example 158, (2S,4R)—N-[[2-chloro-5-[2-(trifluoromethyl)pyrimidin-5-yl]phenyl]methyl]-4-fluoro-1-(4-fluorophenyl)sulfonyl-pyrrolidine-2-carboxamide]	4
C[C@@]1(F)C[C@@H](C(=O)NCc2cc(-c3ccc(C(F)(F)F)nc3)ncn2)N(S(=O)(=O)c2ccc(F)cc2)C1 (single isomer, unassigned) [Example 107]	90
O=C(NCc1cc(-c2ccc(C(F)(F)F)cc2F)ncn1)[C@@H]1C[C@@H](F)CN1S(=O)(=O)c1ccc(F)cc1 [Example 113, (2S,4R)-4-fluoro-N-((6-(2-fluoro-4-(trifluoromethyl)phenyl)pyrimidin-4-yl)methyl)-1-(4-fluorophenylsulfonyl)pyrrolidine-2-carboxamide]	161
O=C(NCc1cc(-c2ccc(C(F)(F)F)c(F)c2)ncn1)[C@@H]1[C@@H](F)CCN1S(=O)(=O)c1ccc(F)cc1 [Example 93, (2R,3S)-3-fluoro-N-((6-(3-fluoro-4-(trifluoromethyl)phenyl)pyrimidin-4-yl)methyl)-1-(4-fluorophenylsulfonyl)pyrrolidine-2-carboxamide]	14
O=C(NCc1ncc(F)c(-c2ccc(C(F)(F)F)nc2)c1F)[C@@H]1C[C@@H](F)CN1S(=O)(=O)c1ccc(F)cc1 [Example 117, (2S,4R)—N-([3,5-difluoro-4-[6-(trifluoromethyl)pyridin-3-yl]pyridin-2-yl]methyl)-4-fluoro-1-[(4-fluorobenzene)sulfonyl]pyrrolidine-2-carboxamide]	224
N#Cc1ccc(-c2cnc(C(F)(F)F)nc2)cc1CNC(=O)[C@@H]1C[C@@H](F)CN1S(=O)(=O)c1ccc(F)cc1 [Example 164, (2S,4R)—N-(2-cyano-5-(2-(trifluoromethyl)pyrimidin-5-yl)benzyl)-4-fluoro-1-((4-fluorophenyl)sulfonyl)pyrrolidine-2-carboxamide]	32
N#Cc1cnc(CNC(=O)[C@@H]2C[C@@H](F)CN2S(=O)(=O)c2ccc(F)cc2)cc1-c1ccc(C(F)(F)F)cc1 [Example 70, (2S,4R)—N-((5-cyano-4-(4-(trifluoromethyl)phenyl)pyridin-2-yl)methyl)-4-fluoro-1-(4-fluorophenylsulfonyl)pyrrolidine-2-carboxamide]	23
